In US9358276B2, “Methods of diagnosing and treating small intestinal bacterial overgrowth (SIBO) and SIBO-related conditions” (Cedars-Sinai Medical Center, priority 1999, dated 2016):

Experiments:
[1] = tested on: intestinal transit; assay: Intestinal transit in multi-fistulated dogs, cumulative % recovery of 99mTc-DTPA; type: in vivo, dog; conditions: for Effect of 5-HT delivered to distal gut on intestinal transit time: n = 2 dogs
Excerpt: The experiments described below are based on a previously described chronic multi-fistulated dog model, employing surgically fistulated male or female mongrel dogs weighing about 25 kg each. (Lin, H. C. et al., Inhibition of gastric emptying by glucose depends on length of intestine exposed to nutrient, Am. J. Physiol. 256:G404-G411 [1989]). The small intestines of the dogs were each about 300 cm long from the pylorus to the ileal-cecal valve. The duodenal fistula was situated 15 cm from the pylorus; the mid-gut fistula was situated 160 cm from the pylorus. Occluding Foley catheters (balloon catheters that are inflated to produce a water-tight seal with the lumenal surface) were placed into the distal limb of a duodenal fistula and a mid-gut fistula, fat or other test agents were administered lumenally to the thus compartmentalized Aproximal≅ section of the gut, i.e., between the fistulas, or to the compartmentalized Adistal≅ section of the gut, i.e., beyond the mid-gut fistula. Perfusate was pumped into a test section through the catheter at a rate of 2 mL/minute. Test agents were administered along with buffer perfusate, but some test agents were administered intravenously, where specifically noted.
Intestinal transit measurements were made by tracking the movement of a liquid marker across the approximately 150 cm intestinal test segment by delivering about 20 μCi ^99mTc chelated to diethyltriamine pentaacetic acid (DTPA)(Cunningham, K. M. et al., Use of technicium-99m (V)thiocyanate to measure gastric emptying of fat, J. Nucl. Med. 32:878-881 [1991]) as a bolus into the test segment after 60 minutes of a 90-minute perfusion. The output from the mid-gut fistula was collected every 5 min thereafter for 30 minutes, which period is illustrated in FIGS. 9-23. Using a matched dose of ^99mTc to represent the original radioactivity (Johansson, C., Studies of gastrointestinal interactions, Scand. J. Gastroenterol. 9(Suppl 28):1-60 [1974]; Zierler, K., A simplified explanation of the theory of indicator dilution for measurement of fluid flow and volume and other distributive phenomena, Bull. John Hopkins 103:199-217 [1958]), the radioactivity delivered into the animal as well as the radioactivity of the recovered fistula output were all measured using a gamma well counter. After correcting all counts to time zero, intestinal transit was calculated as the cumulative percent recovery of the delivered ^99mTc-DTPA. This method has been well validated over the years and appreciated for its advantage of minimal inadvertent marker loss. […] There was a very high level of marker recovery, with 90% of the marker recovered by 30 minutes and 98% of the marker recovered by 45 minutes.

[2] = tested on: release of 5-HT from the proximal gut; assay: 5-HT released by the proximal gut (ELISA of mid-gut fistula output); type: in vivo, dog; conditions: 5-HT 0.05 mg/kg/h to distal gut; control 156 μg; n=1
Method: To test the hypothesis that fat in the distal gut causes the release of 5-HT in the proximal gut, the amount of 5-HT collected from the output of the mid-gut fistula (proximal gut 5-HT) over a 90-minute period of buffer perfusion through both the duodenal and mid-gut fistulas (2 mL/min); buffer (control) or oleate (60 mM) was administered to the distal gut (n=1). The amount of 5-HT was determined using an ELISA kit specific for 5-HT (Sigma; Graham-Smith, D. G., The carcinoid syndrome, In: Topics in Gastroenterology, Truclove, S. C. and Lee, E. (eds.), Blackwells, London, p. 275 [1977]; Singh, S. M. et al., Concentrations of serotonin in plasma-a test for appendicitis?, Clin. Chem. 34:2572-2574 [1988]). The amount of 5-HT released by the proximal gut increased in response to fat in the distal gut from 100 μg in the control (buffer minus oleate) to 338 μg (buffer plus oleate to distal gut), showing that 5-HT is released in the proximal gut in response to fat in the distal gut. Thus, the release of 5-HT by the proximal gut can serve as a relayed signal for fat in the distal gut. The relayed release of 5-HT in the proximal gut in response to fat in the distal gut is consistent with Example 14(2), showing that slowing of intestinal transit by fat depends on an efferent 5-HT-mediated pathway to the proximal gut.
To test the hypothesis that 5-HT in the distal gut causes the release of 5-HT in the proximal gut, the amount of 5-HT collected from the output at the mid-gut fistula (Proximal gut 5-HT) over a 90-minute period of buffer perfusion through both the duodenal and mid-gut fistulas (2 mL/min each) was compared in the presence or absence of 5-HT (0.05 mg/kg/h) administered to the distal gut (n=1). 5-HT concentration was determined using an ELISA kit specific for 5-HT (Sigma). The amount of 5-HT released by the proximal gut increased from 156 μg in the control (minus distal 5-HT) to 450 μg (plus 5-HT to distal gut), implying that 5-HT is released by the proximal gut in response to 5-HT in the distal gut. Thus, the release of 5-HT by the proximal gut can serve as a relayed signal for distal gut 5-HT. This relayed release of 5-HT in the proximal gut explains the results of Example 14(6) showing that the slowing of intestinal transit by distal gut 5-HT was abolished by ondansetron in the proximal gut (efferent limb of response) as well as in the distal gut (afferent limb of response).
To test the hypothesis that the proximal gut releases 5-HT in response to lipid in the distal gut, we compared the amount of 5-HT in the output of the midgut fistula (i.e., proximal gut 5-HT) with buffered saline (control) or oleate in the distal gut. The amount of 5-HT collected over 90 min was measured using a 5-HT-specific ELISA test kit, as described herein above. Four dogs were tested.
The amount of 5-HT released from the proximal gut in response to intravenous PYY or buffered saline (Control) during buffer perfusion (2 mL/min over 90 minutes) through both the duodenal and mid-gut fistulas was measured to test the hypothesis that intravenous PYY (0.8 mg/kg/h) causes the release of 5-HT in the proximal gut. 5-HT was measured as in Example 14(9) above. The amount of 5-HT released by the proximal gut increased from 140.1 μg (Control) to 463.1 μg in response to intravenous PYY.

[3] = tested on: SIBO; assay: Comparison of antibiotic regimes for eradicating SIBO, follow-up lactulose breath hydrogen test (LBHT); type: in vivo, human; conditions: for % Patients with SIBO Eradicated: follow-up LBHT
Method: Subjects were tested after an overnight fast. […] Each breath sample was then analyzed for hydrogen content with a gas chromatograph (Quintron Model DP, Quintron Instrument Co., Division of E.F. Brewer Co, Menomonee Falls, Wis. 53051), standardized using a QuinGas standard as instructed by the manufacturer. Hydrogen peaks were plotted before and after an antimicrobial treatment regimen for comparison. The normal range for the second hydrogen peak was 0 to 20 ppm. Subjects referred to the Cedars-Sinai GI Motility Program for a lactulose breath hydrogen test (LBHT) to assess SIBO were entered into a database. Those that tested positive for SIBO were given antibiotic treatment by their referring physician and in some cases, returned for a follow-up LBHT to assess eradication of SIBO. During the follow-up LBHT, subjects were asked which antibiotic they were given to treat their SIBO. The eradication rate of each antibiotic was evaluated. Of the 771 subjects in the database, 561 (73%) tested positive for SIBO. […] (See Table 1 below). […] None of the commonly used antibiotics was universally successful in eradicating overgrowth.

[4] = tested on: SIBO; assay: Antibiotic treatment of Crohn's disease subjects with SIBO; type: in vivo, human; conditions: Crohn's subjects; pooled over the named antibiotics
Method: To correct for selection bias, a pilot study was conducted to determine the incidence of SIBO in subjects who had received a suspected diagnosis of Crohn's disease at Cedars-Sinai Medical Center=s IBD Center within the preceding three months.

[5] = tested on: ileal brake; conditions: rats, Brown et al. 1993, cited from earlier work

SMILES: NCCc1c[nH]c2ccc(O)cc12 [5-HT, 5-hydroxytryptamine]
- Effect of 5-HT delivered to distal gut on intestinal transit time ([1]; 0.033 mg/kg/h × 90 min, 0 dose 68.5 ± 1.0): 69.6 ± 4.2 min
- Effect of 5-HT delivered to distal gut on intestinal transit time ([1]; 0.05 mg/kg/h × 90 min): 33.5 ± 1.5 min
- Effect of 5-HT delivered to distal gut on intestinal transit time ([1]; 0.066 mg/kg/h × 90 min): 15.2 ± 0.5 min
- marker recovery ([1]; 0.1 mg/kg/h 5-HT into distal gut, Saline-Dist 76.1±1.3%): 35.2±2.3%
- marker recovery ([1]; 0.1 mg/kg/h 5-HT into proximal gut, Saline-Prox 85.0±7.3%, four dogs): 20.1±4.5%
- Effect of 5-HT delivered to distal gut on intestinal transit time ([1]; 0.1 mg/kg/h × 90 min): 16.1 ± 4.9 min
- Effect of 5-HT delivered to distal gut on intestinal transit time ([1]; 0.3 mg/kg/h × 90 min): 73.8 ± 0.6 min
- marker recovery ([1]; 5-HT 0.05 mg/kg/h in distal gut, Buffer Control 79.4±4.1%): 37.0±1.8%
- marker recovery ([1]; 5-HT 0.05 mg/kg/h to distal gut, Buffer Control 83.3±3.3%, n=2): 36.1±2.3%
- proximal intestinal transit, cumulative % marker recovered ([1]; 5-HT 0.1 mg/kg/h distal gut, Saline (i.v.)): 28.27 ± 5.03%
- marker recovery ([1]; 5-HT 0.1 mg/kg/h to distal gut, buffer control 76.1±4.7%, four dogs): 35.2±2.2%
- marker recovery ([1]; 5-HT in distal gut, 2 mg (0.033 mg/kg/h) over 90 min, buffer 81.2%, n=1): 73.8%
- marker recovery ([1]; 5-HT in distal gut, 3 mg (0.05 mg/kg/h), n=1): 53.1%
- marker recovery ([1]; 5-HT in distal gut, 4 mg (0.066 mg/kg/h), n=1): 11.6%
- marker recovery ([1]; 5-HT in proximal gut, 0.033 mg/kg/h): not significantly different from the buffer control
- marker recovery ([1]; 5-HT in proximal gut, 0.05 mg/kg/h): 33.2±14.0%
- marker recovery ([1]; 5-HT in proximal gut, 0.066 mg/kg/h, buffer 75.0±4.4%, four dogs): 16.9±+3.7%
- amount of 5-HT released by the proximal gut [2]: 450 µg

SMILES: O=C(O)c1cn(C2CC2)c2cc(N3CCNCC3)c(F)cc2c1=O [Ciprofloxacin, ciprofloxacin]
- % Patients with SIBO Eradicated [3]: 50%
- improvement in symptoms, breath test negative after antibiotic [4]: 69±27%

SMILES: Cc1ncc([N+](=O)[O-])n1CCO [Flagyl, metronidazole]
- success in eradicating SIBO, comparison of antibiotics ([3]; 105 subjects with follow-up LBHT): relatively poor choice by itself
- % Patients with SIBO Eradicated [3]: 25%
- improvement in symptoms, breath test negative after antibiotic [4]: 69±27%
- improvement in symptoms, subjects remaining positive on breath test after antibiotic [4]: 20±0%

SMILES: CN1C2CCCC1CC(NC(=O)c1nn(C)c3ccccc13)C2 (centres unmarked) [granisetron]
- ileal brake induced by ileal infusion of lipid ([5]; subcutaneous administration): abolished the ileal brake
- intestinal transit of a baked bean meal ([5]; subcutaneous administration): delayed

SMILES: C=CCN1CC[C@]23c4c5ccc(O)c4O[C@H]2C(=O)CC[C@@]3(O)[C@H]1C5 [naloxone]
- marker recovery ([1]; 60 mM oleate in proximal gut with 3 mg naloxone): 41.0±5.2%
- marker recovery ([1]; 60 mM oleate in proximal gut with 6 mg naloxone): 62.8±8.2%
- marker recovery ([1]; 60 mM oleate in proximal gut with 12 mg naloxone): 60.6±6.1%
- marker recovery ([1]; buffer in proximal gut with 6 mg naloxone, no fat, without naloxone 81.3±6.1%, n=3): 88.0±1.3%
- marker recovery ([1]; distal gut 5-HT + naloxone 6 mg in proximal gut): 90.1±4.6%
- marker recovery ([1]; ileal brake + 6 mg naloxone to distal gut): 29.4±5.4%
- marker recovery ([1]; ileal brake + 6 mg naloxone to proximal gut): 76.2±5.2%
- ileal brake [5]: abolish the ileal brake

SMILES: NC[C@H](O)c1ccc(O)c(O)c1 [norepinephrine]
- Transit Across Proximal Gut (Cumulative % Marker Recovered) ([1]; Buffer + NE i.v. 50 mg/30 ml/1.5 h, Buffer Control 68.5 ± 5.0, five dogs): 16.3 ± 3.4^ab %
- marker recovery ([1]; intravenous norepinephrine 0.12 μg/kg/h + normal saline, Buffer Control 76.9%, n=2): 13.3%

SMILES: CC(C)NCC(O)COc1cccc2ccccc12 (centres unmarked) [propranolol]
- proximal intestinal transit, cumulative % marker recovered ([1]; 60 mM oleate distal gut + Propranolol (i.v.) 50 μg/kg/h): 66.42 ± 8.26%
- proximal intestinal transit, cumulative % marker recovered ([1]; 5-HT distal gut + Propranolol (i.v.) 50 μg/kg/h): 63.85 ± 8.76%
- marker recovery ([1]; distal gut 5-HT + intravenous propranolol 50 μg/kg/h): 77.7±7.6%
- marker recovery ([1]; distal gut oleate + intravenous propranolol 50 μg/kg/h): 72.1±4.7%
- marker recovery ([1]; intravenous PYY + intravenous propranolol 50 μg/kg/h): 66.3±3.1%
